This is an account of results in patent US20090304692A1, “TRIAZINE COMPOUNDS AS PI3 KINASE AND MTOR INHIBITORS” (Wyeth, priority 2008, published 2009).

“And” between values parts separate entries of the source, which are not always exact repeats. Equal values may be shown once. Read-outs that look alike come from different tables or passages of the source.

In one experiment the target is PI3K-α (Homo sapiens, UniProt P42336). Kind of experiment: PI3K-alpha fluorescence polarization assay. The following applies: read-out: IC50 PI3Kα. Background: Polarisation of emitted light reports the rotation of a fluorescent probe.
PI3K-α, sequence (P42336 whole entry, species assumed): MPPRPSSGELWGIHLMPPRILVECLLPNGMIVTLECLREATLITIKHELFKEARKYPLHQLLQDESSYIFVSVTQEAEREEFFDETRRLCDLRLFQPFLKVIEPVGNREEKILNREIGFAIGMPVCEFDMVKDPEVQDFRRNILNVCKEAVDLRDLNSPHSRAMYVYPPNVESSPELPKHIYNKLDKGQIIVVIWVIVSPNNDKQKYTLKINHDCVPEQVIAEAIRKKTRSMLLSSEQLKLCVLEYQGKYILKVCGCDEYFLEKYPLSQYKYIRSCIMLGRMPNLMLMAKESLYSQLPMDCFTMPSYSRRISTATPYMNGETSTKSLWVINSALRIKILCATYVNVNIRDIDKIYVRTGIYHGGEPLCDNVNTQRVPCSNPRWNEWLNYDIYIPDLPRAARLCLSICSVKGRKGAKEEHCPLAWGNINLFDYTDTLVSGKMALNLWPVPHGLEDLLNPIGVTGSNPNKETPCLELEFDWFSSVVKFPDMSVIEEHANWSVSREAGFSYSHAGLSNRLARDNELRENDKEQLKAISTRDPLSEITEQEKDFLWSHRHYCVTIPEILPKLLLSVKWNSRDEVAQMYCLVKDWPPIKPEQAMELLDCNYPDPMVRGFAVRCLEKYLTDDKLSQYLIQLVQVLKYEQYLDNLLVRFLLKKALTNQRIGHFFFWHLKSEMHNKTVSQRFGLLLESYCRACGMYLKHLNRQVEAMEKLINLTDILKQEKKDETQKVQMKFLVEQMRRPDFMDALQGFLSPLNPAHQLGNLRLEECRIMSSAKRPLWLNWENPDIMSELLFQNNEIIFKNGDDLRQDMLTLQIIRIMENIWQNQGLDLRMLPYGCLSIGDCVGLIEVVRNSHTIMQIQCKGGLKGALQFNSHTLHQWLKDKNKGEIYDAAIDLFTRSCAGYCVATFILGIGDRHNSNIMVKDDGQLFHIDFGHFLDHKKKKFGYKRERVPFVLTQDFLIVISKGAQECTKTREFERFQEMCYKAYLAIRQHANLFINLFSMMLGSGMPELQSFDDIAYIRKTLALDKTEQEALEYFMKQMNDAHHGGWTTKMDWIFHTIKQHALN
PI3K-α, sequence (P27986 whole entry partner, species assumed): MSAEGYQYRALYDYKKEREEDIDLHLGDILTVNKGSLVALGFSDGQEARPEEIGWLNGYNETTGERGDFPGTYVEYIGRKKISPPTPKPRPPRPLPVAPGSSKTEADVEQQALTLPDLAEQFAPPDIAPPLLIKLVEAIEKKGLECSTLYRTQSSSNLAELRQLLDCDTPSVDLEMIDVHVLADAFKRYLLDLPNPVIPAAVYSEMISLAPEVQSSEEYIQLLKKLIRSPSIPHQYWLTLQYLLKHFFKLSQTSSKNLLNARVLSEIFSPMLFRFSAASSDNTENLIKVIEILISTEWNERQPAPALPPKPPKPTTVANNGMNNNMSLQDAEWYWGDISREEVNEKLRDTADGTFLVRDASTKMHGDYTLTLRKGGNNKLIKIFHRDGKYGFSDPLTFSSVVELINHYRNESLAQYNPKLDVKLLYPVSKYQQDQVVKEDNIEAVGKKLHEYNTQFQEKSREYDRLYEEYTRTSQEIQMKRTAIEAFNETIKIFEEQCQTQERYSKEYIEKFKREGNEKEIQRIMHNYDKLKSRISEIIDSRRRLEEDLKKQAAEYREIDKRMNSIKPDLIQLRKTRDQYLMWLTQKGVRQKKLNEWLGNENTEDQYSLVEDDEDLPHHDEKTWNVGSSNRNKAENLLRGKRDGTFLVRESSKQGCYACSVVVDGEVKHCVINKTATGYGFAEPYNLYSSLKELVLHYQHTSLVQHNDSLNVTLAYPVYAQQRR
Experiment [1] relates to human breast MDA-MB-361 tumor cell line. Briefly: In vitro cell culture growth assay (MTS), MDA-MB-361. The format is cell-based. To be noted: Homo sapiens, MDA-MB-361, 72 h, MTS cell growth assay, three days after drug treatment, read-out: IC50 MDA-MB-361. A general note: Formazan colour is commonly taken as a measure of viable cells.
For experiment [2], the system named is human prostate PC3-mm2 tumor cell line. Briefly: In vitro cell culture growth assay (MTS), PC3-mm2. It is filed as cell-based. To be noted: Homo sapiens, PC3MM2, 72 h, MTS cell growth assay, three days after drug treatment, read-out: IC50 PC3-mm2.
Another experiment deals with PI3K-γ (Homo sapiens, UniProt P48736). Briefly: PI3K-gamma fluorescence polarization assay. To be noted: read-out: IC50 PI3Kγ.
PI3K-γ, sequence (P48736 whole entry, species assumed): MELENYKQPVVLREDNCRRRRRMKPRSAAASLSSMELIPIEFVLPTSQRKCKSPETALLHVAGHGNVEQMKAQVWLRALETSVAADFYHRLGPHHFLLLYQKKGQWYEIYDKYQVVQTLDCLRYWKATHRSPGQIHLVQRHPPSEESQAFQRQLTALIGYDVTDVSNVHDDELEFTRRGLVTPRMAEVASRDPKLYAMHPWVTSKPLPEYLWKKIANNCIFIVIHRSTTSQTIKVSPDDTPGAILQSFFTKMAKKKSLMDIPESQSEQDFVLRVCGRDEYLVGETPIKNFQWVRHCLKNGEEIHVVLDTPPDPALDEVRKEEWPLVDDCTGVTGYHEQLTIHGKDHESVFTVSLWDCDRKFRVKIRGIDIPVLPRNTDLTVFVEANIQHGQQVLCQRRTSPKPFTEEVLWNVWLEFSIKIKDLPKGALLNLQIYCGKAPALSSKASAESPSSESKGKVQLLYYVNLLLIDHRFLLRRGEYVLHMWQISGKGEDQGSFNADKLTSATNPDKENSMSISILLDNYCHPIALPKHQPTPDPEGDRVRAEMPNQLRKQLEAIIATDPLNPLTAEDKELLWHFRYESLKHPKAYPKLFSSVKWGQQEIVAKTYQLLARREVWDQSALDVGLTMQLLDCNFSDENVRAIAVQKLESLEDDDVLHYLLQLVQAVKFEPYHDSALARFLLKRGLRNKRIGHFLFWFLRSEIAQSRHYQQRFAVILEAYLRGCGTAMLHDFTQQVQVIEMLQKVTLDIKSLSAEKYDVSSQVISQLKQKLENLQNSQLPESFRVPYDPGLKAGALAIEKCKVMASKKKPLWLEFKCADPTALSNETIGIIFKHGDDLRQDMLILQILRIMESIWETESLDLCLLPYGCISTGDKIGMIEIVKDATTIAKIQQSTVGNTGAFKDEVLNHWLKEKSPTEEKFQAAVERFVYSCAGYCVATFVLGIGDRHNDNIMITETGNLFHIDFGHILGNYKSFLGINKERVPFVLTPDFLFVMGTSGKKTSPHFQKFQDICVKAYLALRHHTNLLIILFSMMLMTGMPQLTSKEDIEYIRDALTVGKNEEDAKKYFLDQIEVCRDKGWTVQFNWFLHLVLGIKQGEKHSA
Another experiment addresses Human mTOR (FLAG-TOR) (Homo sapiens, UniProt P42345). Briefly: mTOR kinase assay (DELFIA format, purified enzyme). The format is biochemical. The following applies: read-out: IC50 mTOR.

Human mTOR (FLAG-TOR), sequence (P42345 1360-2549 limits assumed): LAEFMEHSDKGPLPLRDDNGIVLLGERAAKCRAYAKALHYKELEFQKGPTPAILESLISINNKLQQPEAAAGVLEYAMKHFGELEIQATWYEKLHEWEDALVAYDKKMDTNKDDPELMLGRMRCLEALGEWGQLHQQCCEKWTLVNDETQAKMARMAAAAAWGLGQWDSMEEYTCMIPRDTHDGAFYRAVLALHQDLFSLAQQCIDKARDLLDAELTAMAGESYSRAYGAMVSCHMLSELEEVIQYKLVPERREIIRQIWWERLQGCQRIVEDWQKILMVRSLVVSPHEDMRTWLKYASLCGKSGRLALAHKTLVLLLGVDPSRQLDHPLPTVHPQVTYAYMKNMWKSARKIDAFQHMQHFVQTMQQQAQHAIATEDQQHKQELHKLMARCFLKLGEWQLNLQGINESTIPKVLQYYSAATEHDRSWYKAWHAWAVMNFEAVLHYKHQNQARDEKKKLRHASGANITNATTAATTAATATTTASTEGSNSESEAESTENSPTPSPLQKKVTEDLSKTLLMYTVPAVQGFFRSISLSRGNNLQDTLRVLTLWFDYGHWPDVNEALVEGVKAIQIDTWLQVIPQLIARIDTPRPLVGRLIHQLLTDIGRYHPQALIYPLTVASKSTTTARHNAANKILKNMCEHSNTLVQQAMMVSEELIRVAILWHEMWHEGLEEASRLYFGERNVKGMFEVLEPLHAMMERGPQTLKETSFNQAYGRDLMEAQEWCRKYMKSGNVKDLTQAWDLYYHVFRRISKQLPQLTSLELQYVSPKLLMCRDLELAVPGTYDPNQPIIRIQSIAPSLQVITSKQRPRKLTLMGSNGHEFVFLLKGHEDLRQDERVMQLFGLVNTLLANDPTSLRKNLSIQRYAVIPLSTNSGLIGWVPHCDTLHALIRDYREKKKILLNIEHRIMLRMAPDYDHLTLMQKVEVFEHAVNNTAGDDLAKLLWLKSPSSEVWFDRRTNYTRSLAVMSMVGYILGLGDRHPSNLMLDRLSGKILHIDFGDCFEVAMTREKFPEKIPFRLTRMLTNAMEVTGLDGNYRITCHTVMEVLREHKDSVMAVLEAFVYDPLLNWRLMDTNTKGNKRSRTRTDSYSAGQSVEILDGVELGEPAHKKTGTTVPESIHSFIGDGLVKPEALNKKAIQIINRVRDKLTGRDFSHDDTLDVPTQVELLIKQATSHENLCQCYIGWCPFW

Usually IC50 stands for the point on the concentration scale where inhibition reaches its midpoint. For the molecule `CC(C)Cc1nc(-c2ccc(NC(=O)Nc3ccc(N4CCN(C)CC4)cc3)cc2)nc(N2CCOCC2)n1` [Example 297, 1-[4-(4-methylpiperazin-1-yl)phenyl]-3-{4-[4-(2-methylpropyl)-6-morpholin-4-yl-1,3,5-triazin-2-yl]phenyl}urea], the IC50 at PI3K-α came to 38 nM; in experiment [1], 115 nM; in experiment [2] it was 290 nM; at PI3K-γ, 70 nM; on Human mTOR (FLAG-TOR), 10 nM.

`CCc1nc(-c2ccc(NC(=O)Nc3ccc(C(=O)N4CCNC(C)(C)C4)cc3)cc2)nc(N2CCOCC2)n1` [Example 298, 1-{4-[(3,3-dimethylpiperazin-1-yl)carbonyl]phenyl}-3-[4-(4-ethyl-6-morpholin-4-yl-1,3,5-triazin-2-yl)phenyl]urea]: the IC50 at PI3K-α turned out to be 2 nM; in experiment [1], 38 nM; in experiment [2], 165 nM; at PI3K-γ it was 24 nM; on Human mTOR (FLAG-TOR), 21 nM.

As for `CCc1nc(-c2ccc(NC(=O)Nc3ccc(C(=O)NC4CN(C)C4)cc3)cc2)nc(N2CCOCC2)n1` [Example 299, 4-({[4-(4-ethyl-6-morpholin-4-yl-1,3,5-triazin-2-yl)phenyl]carbamoyl}amino)-N-(1-methylazetidin-3-yl)benzamide], the IC50 at PI3K-α was found to be 3 nM; in experiment [1], 73 nM; in experiment [2] it was 219 nM; on PI3K-γ it was 34 nM; at Human mTOR (FLAG-TOR), 80 nM.

For `CC(C)c1nc(-c2ccc(NC(=O)Nc3ccc(C(=O)O)cc3)cc2)nc(N2CCOCC2)n1` [Example 301, 4-[({4-[4-(1-methylethyl)-6-morpholin-4-yl-1,3,5-triazin-2-yl]phenyl}carbamoyl)amino]benzoic acid], the IC50 on PI3K-α is 21 nM; in experiment [1] it was 430 nM; in experiment [2], 759 nM; on PI3K-γ it was 58 nM; at Human mTOR (FLAG-TOR), 0.8 nM.

For `CC(O)c1ccc(NC(=O)Nc2ccc(-c3nc(N4CCOCC4)nc(N4C[C@H]5C[C@@H]4CN5C(=O)OC(C)(C)C)n3)cc2)cc1` (stereo partly drawn) [Example 302, tert-butyl-(1R,4R)-5-{4-[4-({[4-(1-hydroxyethyl)phenyl]carbamoyl}amino)phenyl]-6-morpholin-4-yl-1,3,5-triazin-2-yl}-2,5-diazabicyclo[2.2.1]heptane-2-carboxylate], the IC50 was 35 nM at PI3K-α; 299 nM in experiment [1]; 539 nM in experiment [2]; 263 nM on PI3K-γ; 36 nM on Human mTOR (FLAG-TOR).

In the case of `CC(C)c1nc(-c2ccc(NC(=O)Nc3ccc(C(=O)NCCN(C)C)cc3)cc2)nc(N2CCOCC2)n1` [Example 305, N-[2-(dimethylamino)ethyl]-4-[({4-[4-(1-methylethyl)-6-morpholin-4-yl-1,3,5-triazin-2-yl]phenyl}carbamoyl)amino]benzamide], the IC50 at PI3K-α turned out to be 1 nM; in experiment [1] it was 4 nM; in experiment [2], 46 nM; at PI3K-γ, 18 nM; on Human mTOR (FLAG-TOR) it was 0.6 nM.

Take `CC(C)c1nc(-c2ccc(NC(=O)Nc3ccc(C(=O)N(C)CCN(C)C)cc3)cc2)nc(N2CCOCC2)n1` [Example 306, N-[2-(dimethylamino)ethyl]-N-methyl-4-[({4-[4-(1-methylethyl)-6-morpholin-4-yl-1,3,5-triazin-2-yl]phenyl}carbamoyl)amino]benzamide]: the IC50 at PI3K-α amounted to 1 nM; in experiment [1], 7 nM; in experiment [2], 30 nM; on PI3K-γ, 19 nM; on Human mTOR (FLAG-TOR), 2.1 nM.

With `CC(C)c1nc(-c2ccc(NC(=O)Nc3ccc(C(=O)N4CCC(N(C)C)CC4)cc3)cc2)nc(N2CCOCC2)n1` [Example 308, 1-(4-{[4-(dimethylamino)piperidin-1-yl]carbonyl}phenyl)-3-{4-[4-(1-methylethyl)-6-morpholin-4-yl-1,3,5-triazin-2-yl]phenyl}urea], the IC50 stood at 3 nM at PI3K-α; 4 nM in experiment [1]; 53 nM in experiment [2]; 14 nM on PI3K-γ; 2.9 nM on Human mTOR (FLAG-TOR).

Consider `CC(C)c1nc(-c2ccc(NC(=O)Nc3ccc(C(=O)Nc4ccncc4)cc3)cc2)nc(N2CCOCC2)n1` [Example 309, 4-[({4-[4-(1-methylethyl)-6-morpholin-4-yl-1,3,5-triazin-2-yl]phenyl}carbamoyl)amino]-N-pyridin-4-ylbenzamide], for which the IC50 was determined as 12 nM at PI3K-α; 64 nM in experiment [1]; 109 nM in experiment [2]; 95 nM at PI3K-γ; 3.5 nM on Human mTOR (FLAG-TOR).

Take `CC(C)c1nc(-c2ccc(NC(=O)Nc3ccc(C(=O)Nc4cccnc4)cc3)cc2)nc(N2CCOCC2)n1` [Example 310, 4-[({4-[4-(1-methylethyl)-6-morpholin-4-yl-1,3,5-triazin-2-yl]phenyl}carbamoyl)amino]-N-pyridin-3-ylbenzamide]: the IC50 stood at 14 nM at PI3K-α; 44 nM in experiment [1]; 117 nM in experiment [2]; 82 nM at PI3K-γ; 5.9 nM on Human mTOR (FLAG-TOR).

Take `CC(C)c1nc(-c2ccc(NC(=O)Nc3ccc(C(=O)NC4CCC4)cc3)cc2)nc(N2CCOCC2)n1` [Example 311, N-cyclobutyl-4-[({4-[4-(1-methylethyl)-6-morpholin-4-yl-1,3,5-triazin-2-yl]phenyl}carbamoyl)amino]benzamide]: the 50% inhibitory concentration (IC50) at PI3K-α stood at 40 nM; in experiment [1], 126 nM; in experiment [2] it was 366 nM; at PI3K-γ, 125 nM; on Human mTOR (FLAG-TOR) it was 12 nM.

For the molecule `CCc1nc(-c2ccc(NC(=O)Nc3ccc(C(=O)N4CCC(c5ccccc5)CC4)cc3)cc2)nc(N2CCOCC2)n1` [Example 320, 1-[4-(4-ethyl-6-morpholin-4-yl-1,3,5-triazin-2-yl)phenyl]-3-{4-[(4-phenylpiperidin-1-yl)carbonyl]phenyl}urea], the IC50 came to 3.3 nM on PI3K-α; 32.3 nM in experiment [1]; 73.7 nM in experiment [2]; 25 nM on PI3K-γ; 12.9 nM on Human mTOR (FLAG-TOR).

As for `CCc1nc(-c2ccc(NC(=O)Nc3ccc(C(=O)NCc4ccncc4)cc3)cc2)nc(N2CCOCC2)n1` [Example 321, 4-({[4-(4-ethyl-6-morpholin-4-yl-1,3,5-triazin-2-yl)phenyl]carbamoyl}amino)-N-(pyridin-4-ylmethyl)benzamide], the IC50 at PI3K-α came out at 25 nM; in experiment [1] it was 106 nM; in experiment [2], 325 nM; at PI3K-γ, 116 nM; on Human mTOR (FLAG-TOR) it was 16.5 nM.

For `CC(C)Cc1nc(-c2ccc(NC(=O)Nc3ccc(C(=O)N4CCN(C)CC4)cc3)cc2)nc(N2CCOCC2)n1` [Example 322, 1-{4-[(4-methylpiperazin-1-yl)carbonyl]phenyl}-3-{4-[4-(2-methylpropyl)-6-morpholin-4-yl-1,3,5-triazin-2-yl]phenyl}urea], the IC50 at PI3K-α stood at 2.4 nM; in experiment [1], 13 nM; in experiment [2], 86 nM; at PI3K-γ, 30 nM; at Human mTOR (FLAG-TOR), 6 nM.

Take `CC(C)Cc1nc(-c2ccc(NC(=O)Nc3ccc(C(=O)N(C)CCN(C)C)cc3)cc2)nc(N2CCOCC2)n1` [Example 324, N-[2-(dimethylamino)ethyl]-N-methyl-4-[({4-[4-(2-methylpropyl)-6-morpholin-4-yl-1,3,5-triazin-2-yl]phenyl}carbamoyl)amino]benzamide]: the IC50 on PI3K-α came to 1 nM; in experiment [1], 4 nM; in experiment [2], 35 nM; at PI3K-γ, 22 nM; on Human mTOR (FLAG-TOR), 5.2 nM.

For `O=C(Nc1ccc(-c2nc(N3CCOCC3)nc(N3C4CCC3COC4)n2)cc1)Nc1ccnc(-c2cccnc2)c1` [Example 336, 1-(2,3′-bipyridin-4-yl)-3-{4-[4-morpholin-4-yl-6-(3-oxa-8-azabicyclo[3.2.1]oct-8-yl)-1,3,5-triazin-2-yl]phenyl}urea], the IC50 on PI3K-α was 40 nM; in experiment [1], 56 nM; in experiment [2] (PC3-mm2 cells), 45 nM; in experiment [2], 45 nM; on PI3K-γ it was 44 nM; at Human mTOR (FLAG-TOR) it was 3.6 nM and 3.45 nM.

As to `Cc1ccc(-c2nc(-c3ccc(NC(=O)Nc4ccc(C(=O)N5CCN(C)CC5)cc4)cc3)nc(N3CCOCC3)n2)cc1` [Example 337, 1-{4-[4-(4-methylphenyl)-6-morpholin-4-yl-1,3,5-triazin-2-yl]phenyl}-3-{4-[(4-methylpiperazin-1-yl)carbonyl]phenyl}urea], the IC50 at PI3K-α worked out at 7 nM; in experiment [1] (MDA-MB-361 cells), 142 nM; in experiment [1], 142 nM; in experiment [2] (PC3-mm2 cells), 373 nM; in experiment [2], 373 nM; at PI3K-γ, 98 nM. For the same molecule, the IC50 on PI3K-γ (listed as 533) was 98.5 nM; at Human mTOR (FLAG-TOR), 70 nM and 70.5 nM.

`Cc1ccc(-c2nc(-c3ccc(NC(=O)Nc4ccc(C(=O)N(C)CCN(C)C)cc4)cc3)nc(N3CCOCC3)n2)cc1` [Example 338, N-[2-(dimethylamino)ethyl]-N-methyl-4-[({4-[4-(4-methylphenyl)-6-morpholin-4-yl-1,3,5-triazin-2-yl]phenyl}carbamoyl)amino]benzamide]: the IC50 on PI3K-α worked out at 3 nM; in experiment [1], 122 nM; in experiment [2] (PC3-mm2 cells), 266 nM; in experiment [2] it was 266 nM; at PI3K-γ it was 77 nM; at PI3K-γ (listed as 532), 76.5 nM. The IC50 at Human mTOR (FLAG-TOR) is 22 nM and 19 nM.
